Measured values taken from BindingDB's records for doi:10.1021/acschembio.7b00186 (University of Strasburg, 2017).

Columns and labels:
[1] = target: T1, ADP-ribosyl cyclase/cyclic ADP-ribose hydrolase [1-303] (Blood fluke, UniProt Q32TF5); experiment: NAD glycohydrolase assay; details: pH 7.4; 37 °C
T1 construct: 1-303
T1 sequence (Q32TF5 whole entry): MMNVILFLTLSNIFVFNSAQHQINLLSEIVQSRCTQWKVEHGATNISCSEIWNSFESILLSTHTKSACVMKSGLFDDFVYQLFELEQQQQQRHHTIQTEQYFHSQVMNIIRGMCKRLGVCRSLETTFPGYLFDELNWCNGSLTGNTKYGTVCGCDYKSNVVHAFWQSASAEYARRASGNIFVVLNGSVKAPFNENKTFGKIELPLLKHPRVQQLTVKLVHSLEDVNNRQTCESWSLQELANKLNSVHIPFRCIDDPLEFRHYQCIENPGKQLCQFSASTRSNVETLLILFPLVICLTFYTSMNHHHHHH
Description: (§1) SmNACE activity and inhibition were measured with a sensitive, continuous, fluorometric assay platform that used 1,N6-ethenonicotinamide adenine dinucleotide (εNAD; Sigma-Aldrich, Inc.) as a substrate. This assay consists of measuring the appearance of the fluorescent εADP-ribose reaction product with excitation (λexc) and emission (λem) wavelengths of 310 and 410 nm, respectively, at 37 °C using the thermostatically controlled Spectramax Gemini XPS fluorescence plate reader (100 uL reaction volume; Molecular Devices, LLC) or the thermostatically controlled RF-5301PC spectrofluorophotometer (1 mL reaction volume; Shimadzu Scientific Instruments). The biochemical assay with 100 ug/mL of recombinant SmNACE was carried out in a 10 mM potassium phosphate buffer, at pH 7.4, containing 0.05% (w/v) emulphogen.

[2] = target: T2, ADP-ribosyl cyclase/cyclic ADP-ribose hydrolase (Blood fluke, UniProt Q32TF5); experiment: NAD glycohydrolase assay; details: pH 7.4; 37 °C
T2 sequence (Q32TF5 whole entry): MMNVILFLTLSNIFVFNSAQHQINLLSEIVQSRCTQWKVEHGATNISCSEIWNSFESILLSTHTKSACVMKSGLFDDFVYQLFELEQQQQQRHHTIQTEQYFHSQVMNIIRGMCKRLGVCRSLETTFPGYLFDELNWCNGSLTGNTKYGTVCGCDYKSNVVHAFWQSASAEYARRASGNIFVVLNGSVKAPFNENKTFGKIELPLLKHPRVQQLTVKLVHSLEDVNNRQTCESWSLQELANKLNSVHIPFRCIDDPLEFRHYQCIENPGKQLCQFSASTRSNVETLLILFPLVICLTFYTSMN
Description: as §1

Row | SMILES | IC50 [1] [nM] | IC50 [2] [nM]
1 | Cc1occc1C(=O)N/N=C/c1ccc(O)c(O)c1 [SmNACE inhibitor, 1] | 88000 | 69000
2 | Cc1occc1C(=O)N/N=C/c1cc(Cl)ccc1O [SmNACE inhibitor, 2] | 33 | 126
3 | O=C(Nc1nc(=O)c2ccccc2s1)c1ccco1 [SmNACE inhibitor, 3] | 2200 | > 20000
4 | Cc1ccc2c(c1)C[N]1NC(C3CCOC3C)[O][Zn+]1[O]2 (stereo not drawn) [Zn(II) complex of 2] | 330 | > 200000
